Drawing on BindingDB's records for patent US10364255 (Boehringer Ingleheim International, 2019), this text covers IC50 for 8 molecules.

The assay deals with T1, Pantetheinase [T26I] (Homo sapiens, UniProt O95497, T26I).
T1 construct: gene VNN1
T1 sequence (O95497 22-491 T26I limits assumed): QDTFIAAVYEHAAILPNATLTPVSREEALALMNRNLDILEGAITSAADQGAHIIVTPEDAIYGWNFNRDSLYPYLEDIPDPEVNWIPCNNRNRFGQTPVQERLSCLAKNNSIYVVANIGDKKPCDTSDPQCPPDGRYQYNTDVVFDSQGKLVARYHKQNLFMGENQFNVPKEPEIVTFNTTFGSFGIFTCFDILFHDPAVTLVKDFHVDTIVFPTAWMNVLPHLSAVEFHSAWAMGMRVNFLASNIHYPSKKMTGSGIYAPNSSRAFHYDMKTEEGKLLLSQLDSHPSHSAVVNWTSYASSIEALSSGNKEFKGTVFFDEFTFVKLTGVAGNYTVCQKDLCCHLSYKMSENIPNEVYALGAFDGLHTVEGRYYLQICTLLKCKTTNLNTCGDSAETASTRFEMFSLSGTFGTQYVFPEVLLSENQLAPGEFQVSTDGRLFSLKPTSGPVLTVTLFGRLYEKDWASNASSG
In words: Enzymatic Assay. Here is the method:
Method 1:Vanin-1 Enzymatic Assay:The test compounds are dissolved in 100% DMSO at a concentration of 10 mM and in a first step diluted in DMSO to a concentration of 5 mM, followed by serial dilution steps in 100% DMSO. Dilution factor and number of dilution steps may vary according to needs. Typically 8 different concentrations by 1:5 dilutions are prepared, a further intermediate dilutions of the substances is carried out with assay buffer resulting in 1% final DMSO concentration in the assay. 0.15 nM of FLAG-tagged Vanin-1 (AA 22-493, T26I, produced internally) and test compounds are incubated at room temperature for 15 minutes in assay buffer (1 mM DTT, 0.0025% Brij-35, 50 mM HEPES, pH7.5). 3 μM D-Pantethine (Sigma, Cat#P2125-5G) in assay buffer is added and incubated for additional 30 minutes at room temperature. Reaction is stopped by adding equal volume of stop solution as the reaction mixture to reach 5 nM Nevirapine (as an internal standard) and 0.5% TFA. Assay plates are centrifuged for 2 minutes and the formation of pantothenic acid is detected by RapidFire Mass Spectrometry (mobile phase A: 0.1% formic acid in water, mobile phase B: 100% methanol) using graphitic carbon cartridge (Agilent Cat #G9206A).
The term IC50 denotes the concentration at which inhibition is half-maximal. Take `O=C(c1cnc2c(c1)OCCN2)N1CCCCC1` [US10364255, Ex. 3]: half-maximal inhibition (IC50) was put at 2800 nM. In other words, the single-digit micromolar range.

For the molecule `CC(=O)N(C)[C@H]1CCN(C(=O)c2cnc3c(c2)OCC(C)(C)N3)C1` [US10364255, Ex. 14], the IC50 came to 0.5 nM.

`CC(=O)N(C)[C@H]1CCN(C(=O)c2cnc3c(c2)O[C@H](C)CN3)C1` [US10364255, Ex. 32]: the midpoint of inhibition, the IC50, lay at 1.3 nM.

In turn, `O=C(c1cnc2c(c1)OCCN2)N1CCC(c2ccncc2)C1` (stereo not drawn) [US10364255, Ex. 38] had an IC50 of 14.2 nM.

`CC(=O)N(C)[C@H]1CCN(C(=O)c2cnc3c(c2)OCCN3)C1` [US10364255, Ex. 39] returned an IC50 of 8.1 nM.

`CC(=O)N(C)[C@H]1CCN(C(=O)c2cnc3c(c2)O[C@H](CO)CN3)C1` [US10364255, Ex. 41] displayed an IC50 of 2.5 nM.

For `O=C(c1cnc2c(c1)O[C@H](CO)CN2)N1CCC(c2ccncc2)C1` (stereo partly drawn) [US10364255, Ex. 43], the IC50 was found to be 3.7 nM.

With `CC(=O)N(C)[C@H]1CCN(C(=O)c2cnc3c(c2)OCCCN3)C1` [US10364255, Ex. 44], the IC50 was 1.7 nM.
